Entries after “also recorded” stand apart in the source; their conditions may differ.

For test [1], the system named is AsPC1 cells. The test can be described thus: Devimistat-induced cell death (ATP after recovery) in AsPC1 cells. The format is cell-based, human. To be noted: AsPC1, nutrient-free CBS2, treatment followed by recovery in serum-free RPMI. As to the method:
Cells were plated at 80% confluency in complete RPMI in black, clear bottom 96-well plates or 35-mm dishes for ATP, protein and glycogen analysis, or glass coverslips for fluorescence visualization. […] Prior to drug treatment, cells were incubated in a nutrient-free carbonate buffered salt solution (CBS2) for 3 hours. Drug treatments were then carried out in CBS2 with addition of nutrient sources and/or chemical agents as described in the Examples and Figures.
(§1) LOGIC: High throughput, plate reader assays for cell death essentially always ultimately depend on metabolic activity of cells to identify viability, directly or indirectly. Thus, strong inhibition of metabolic activity by anti-metabolism agents like those described herein can confound cell death analysis by such assays. […] The inventors thus used a recovery-based assay wherein cells are treated with anti-metabolic agents under conditions where mitochondrial metabolism is (or becomes) limiting on viability. After experimental treatment, drug and media are removed and cells are allowed to recover in serum-free RPMI. RPMI provides high levels of glucose in support of glycolytic ATP generation (independently of mitochondrial function), allowing viable cells to recover ATP levels that are ultimately measured in the plate assay to score cell viability.
Survival is assessed by conventional luminescence measurement of ATP levels after this recovery.
TECHNICAL DETAILS: Immediately after drug treatments, acute ATP levels of cells in black, clear bottom 96-well plates were measured using the CellTiter-Glo® Luminescent Cell Viability Assay (catalog #G775B) following Promega (Madison, WI) protocols. […] After this recovery period ATP levels were measured using the CellTiter-Glo® Luminescent Cell Viability Assay as described above.
Survival is assessed by conventional luminescence measurement of ATP levels after this recovery. See the Methods section above for a detailed description of this assay and its validation.

The subject of test [2] is AsPC1 cells. The test can be described thus: Acute ATP synthesis rescue by exogenous carbon sources in AsPC1 cells treated with devimistat and GPi. In kind it is cell-based, human. Particulars: 60 μM devimistat, 50 μM oleic acid; for inhibition of oleic acid (OA)-driven acute ATP synthesis / OA rescue: AsPC1, 50 μM GPi.
The subject of the next test is AsPC1 xenograft. The experiment in a line: AsPC1 xenograft tumor growth, crizotinib and devimistat. The format is in vivo, mice. To be noted: crizotinib oral gavage, devimistat IP, MWF. As to the method:
Female, 6-week-old, CD1-nu/nu mice were inoculated with 2.5 million PANC-1 cell in 100 μL of HBSS or 5 million AsPC-1 cells in HBSS. Treatment commenced when tumors reached 100 mm^3 and lasted for the times indicated in the Examples and Figures. Mice were treated three times per week (MWF) with vehicle or drugs as indicated in the Examples and Figures. Tumors were measured once per week. […] Use of Matrigel for tumor inoculation was avoided in TGI experiments with this class of agents.
D. Assessment of CRZ and/or devimistat effects on AsPC1 xenograft tumor growth in vivo. Tumors were inoculated subcutaneously on the flank and drug combinations indicated in FIG. 8C were administered intraperitoneally (devimistat) or by oral gavage (CRZ) three days per week (MWF). Tumor size was estimated by caliper assessment of tumor radius and calculation of volume (see Methods).

Test [3] has as its system AsPC1 cells. The experiment in a line: Glycogen content in AsPC1 cells. The format is cell-based, human. To be noted: AsPC1, CBS2, 3 hours. As to the method: Glycogen was quantified using the Glycogen Assay Kit II (colorimetric) from AbCam (ab169558) according to manufacturer's instructions. Briefly, approximately 2×10^6 cells were washed with ice-cold PBS and collected via scraping in 300 μL ice-cold ddH2O. Cells were immediately sonicated on ice for 5× […] pulses with a probe sonicator (Misonix Inc, model XL2000), then heated to 80° C. for 10 min. Samples were stored O/N at −20° C., then thawed, centrifuged at 12,000×g for 10 min and the supernatants collected for glycogen hydrolysis and quantification according to manufacturer's instructions.
C. […] Cells were treated in CBS2 for 3 hours with 30 μM devimistat or mock treated (FIG. 2C, left), or treated for 3 hours with the indicated devimistat doses (FIG. 2C, right).
D. Effects of anti-metabolism agents on glycogen consumption in PANC1 and AsPC1 cells. […] Glycogen content was measured in cell lysates (see Methods, above) and the results are presented in the left and middle graphs in FIG. 3D (note the different vertical scales for PANC1 and AsPC1 plots).

In test [4] the test system is AsPC1 cells. The experiment in a line: CO2 release from 14C-oleic acid in AsPC1 cells. Particulars: AsPC1, CBS2, 50 μM GPi, 40 μM oleic acid. The format is cell-based, human.
Test [5] deals with H460, PC3 and SW620 cells. The test can be described thus: Devimistat cell killing with thioridazine in other cell lines. The format is cell-based, human. To be noted: 10 μM devimistat, 21 hours treatment, 22 hours recovery.
Another test relates to PANC1 cells. The experiment in a line: Devimistat-induced cell death (ATP after recovery) in PANC1 cells. In kind it is cell-based, human. Particulars: PANC1, nutrient-free CBS2, treatment followed by recovery in serum-free RPMI. As to the method: Cells were plated at 80% confluency in complete RPMI in black, clear bottom 96-well plates or 35-mm dishes for ATP, protein and glycogen analysis, or glass coverslips for fluorescence visualization. To create low nutritional conditions, cells were seeded in complete media, after 24 hours cells were transferred to serum free RPMI for 18-24 hours. Prior to drug treatment, cells were incubated in a nutrient-free carbonate buffered salt solution (CBS2) for 3 hours. Drug treatments were then carried out in CBS2 with addition of nutrient sources and/or chemical agents as described in the Examples and Figures.
as §1, with “cell viability. Under these conditions, cells that are committed to execution of cell death by the experimental treatment score as dead and cells that have not committed to cell death recover ATP levels and score as viable.” for “cell viability.”
Specifically, after exposure to the treatments indicated, cells are allowed to recover ([…]) in RPMI without serum. Survival is assessed by conventional luminescence measurement of ATP levels after this recovery.
TECHNICAL DETAILS: Immediately after drug treatments, acute ATP levels of cells in black, clear bottom 96-well plates were measured using the CellTiter-Glo® Luminescent Cell Viability Assay (catalog #G775B) following Promega (Madison, WI) protocols. To assess cell viability, after drug treatments, drug/agent-containing medium was replaced with serum-free RPMI and cells were incubated for an additional 17-24 hours to allow recovery of viable cells, without additional cell division. After this recovery period ATP levels were measured using the CellTiter-Glo® Luminescent Cell Viability Assay as described above.
A. Exogenous glucose protects from devimistat-induced cell death. Four different cell lines were exposed for 15 hours (PANC1, AsPC1, H460) or 8 hours (PC3) to the indicated range of devimistat doses in the absence of exogenous nutrients (in carbonate buffered balanced salts solution, CBS2) after 3 hours of preincubation in CBS2 (for cell adaptation and to equilibrate soluble nutrient pools). Cells were exposed to the treatments indicated, followed by recovery (24 hours) in RPMI without serum (providing nutrient support for viable cell recovery, without serum factors for cell division). Survival is assessed by conventional luminescence measurement of ATP levels after this recovery. […] The relatively large quantitative differences in devimistat sensitivity between cell lines under exogenous nutrient deprivation are characteristic of each line (see examples below), with small experiment-to-experiment variation. […]

Turning to `C[C@@H](Oc1cc(-c2cnn(C3CCNCC3)c2)cnc1N)c1c(Cl)ccc(F)c1Cl` [Crizotinib, (R)-3-[1-(2,6-Dichloro-3-fluorophenyl)ethoxy]-5-[1-(piperidin-4-yl)-1H-pyrazol-4-yl]pyridin-2-amine], in the test with AsPC1 cells [1], the “sensitization to devimistat-induced cell death, agent combined with devimistat” value is listed as “robustly sensitize”. In the test with AsPC1 cells [2], the “inhibition of oleic acid (OA)-driven acute ATP synthesis / OA rescue” value is listed as “robust inhibition”. The OA rescue blockade result in the test on AsPC1 cells [2] (acute ATP synthesis, 50 μM GPi) is recorded as “Yes”. In the test on AsPC1 xenograft, the “sensitization to devimistat tumor cell killing in vivo” value was “sensitizes to devimistat tumor cell killing in vitro and in vivo”.
Regarding `CSc1ccc2c(c1)N(CCC1CCCCN1C)c1ccccc1S2` (stereo not shown) [TZ, 2-methylmercapto-10-[2-(N-methyl-2-piperidyl)ethyl] phenothiazine], in the test on AsPC1 cells [3], the glycogen consumption entry is “accelerates glycogen consumption”. Also, the “sensitization to devimistat-induced cell death, agent combined with devimistat” value in the test on AsPC1 cells [1] is “Synergy observed; also recorded: enhances devimistat effects”; in the test with PANC1 cells, “Synergy observed”. In addition, the “inhibition of oleic acid (OA)-driven acute ATP synthesis / OA rescue” value in the test with AsPC1 cells [2] is on record as “strongly inhibited”. Also, in the test with AsPC1 cells [4], the “oleic acid beta-oxidation (CO2 release from oleate)” value is given as “block oleic acid beta-oxidation”. In addition, the “enhancement of devimistat cell killing” value in test [5] is “enhances devimistat cell killing”.

(Values after US20240415791A1, “Therapeutic methods and compositions for treating cancer using devimistat and a fatty acid oxidation inhibitor, a tyrosine kinase inhibitor, a glutaminase inhibitor, and/or a glycolysis inhibitor” (Cornerstone Pharmaceuticals, Inc., priority 2021, published 2024).)
